From PubChem BioAssay AID330 (DTP/NCI, 2004)
Where “and” joins values, the source holds several entries; their conditions need not be identical. Equal values may be shown once. Inconclusive results and toxic doses are left out. How the source made its calls: active means survival T/C of 150% or more; inactive means T/C below 125% in these data.

Test system: P388 leukemia ip, CD2F1 mice, survival T/C
Experiment: NCI In Vivo Anticancer Drug Screen. Data for tumor model P388 Leukemia (intraperitoneal) in CD2F1 (CDF1) mice
Settings: endpoint: median survival time, higher = longer survival
Method in brief: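 Mice carrying the transplanted tumor received test compound or vehicle. Survival was recorded in each group, and the value is the treated-group measurement divided by that of the vehicle-treated control group.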

[1] = dose: 12.5 mg/kg/injection, schedule: Q04DX002 (ip), vehicle: saline with Tween-80
[2] = dose: 25.0 mg/kg/injection, schedule: Q04DX002 (ip), vehicle: saline with Tween-80
[3] = dose: 50.0 mg/kg/injection, schedule: Q04DX002 (ip), vehicle: saline with Tween-80
[4] = dose: 50.0 mg/kg/injection, schedule: Q01DX005 (ip), vehicle: Klucel (hydroxypropylcellulose) (HPC)
[5] = dose: 100.0 mg/kg/injection, schedule: Q01DX005 (ip), vehicle: Klucel (hydroxypropylcellulose) (HPC)
[6] = dose: 200.0 mg/kg/injection, schedule: Q01DX005 (ip), vehicle: Klucel (hydroxypropylcellulose) (HPC)
[7] = dose: 60.0 mg/kg/injection, schedule: Q01DX005 (ip), vehicle: saline with Tween-80
[8] = dose: 120.0 mg/kg/injection, schedule: Q01DX005 (ip), vehicle: saline with Tween-80
[9] = dose: 240.0 mg/kg/injection, schedule: Q01DX005 (ip), vehicle: saline with Tween-80
[10] = dose: 100.0 mg/kg/injection, schedule: Q04DX003 (ip), vehicle: saline with Tween-80
[11] = dose: 200.0 mg/kg/injection, schedule: Q04DX003 (ip), vehicle: saline with Tween-80
[12] = dose: 400.0 mg/kg/injection, schedule: Q04DX003 (ip), vehicle: saline with Tween-80
[13] = dose: 12.5 mg/kg/injection, schedule: Q01DX009 (ip), vehicle: saline
[14] = dose: 25.0 mg/kg/injection, schedule: Q01DX009 (ip), vehicle: saline
[15] = dose: 50.0 mg/kg/injection, schedule: Q01DX009 (ip), vehicle: saline
[16] = dose: 100.0 mg/kg/injection, schedule: Q01DX009 (ip), vehicle: saline

Measured: T/C

Cc1c2ccncc2c(CNC(=O)CCCC(=O)NCc2c3cnccc3c(C)c3c2c2ccccc2n3C)c2c3ccccc3n(C)c12
inactive: dose: 6.25 mg/kg/injection, schedule: Q04DX002 (ip), vehicle: saline with Tween-80 104 % of control | [1] 104 % of control | [2] 102 % of control | [3] 104 % of control

Cc1ccc(OCCCCBr)c(Br)c1
inactive: [4] 105 % of control | [5] 101 % of control | [6] 97 % of control

Nc1nc2[nH]c(=S)[nH]c2c(=O)[nH]1
inactive: dose: 50.0 mg/kg/injection, schedule: Q01DX005 (ip), vehicle: saline with Tween-80 92 % of control | dose: 100.0 mg/kg/injection, schedule: Q01DX005 (ip), vehicle: saline with Tween-80 92 % of control | dose: 200.0 mg/kg/injection, schedule: Q01DX005 (ip), vehicle: saline with Tween-80 95 % of control

CCC1(CC(=O)O)OCCc2c1[nH]c1c(C)c(Cl)ccc21 (centres undefined)
inactive: dose: 50.0 mg/kg/injection, schedule: Q01DX001 (ip), vehicle: Klucel (hydroxypropylcellulose) (HPC) 101 % of control | dose: 100.0 mg/kg/injection, schedule: Q01DX001 (ip), vehicle: Klucel (hydroxypropylcellulose) (HPC) 101 % of control | dose: 200.0 mg/kg/injection, schedule: Q01DX001 (ip), vehicle: Klucel (hydroxypropylcellulose) (HPC) 100 % of control

CCN1C(C)N1P(=S)(OC1CC(C)(C)N(O)C(C)(C)C1)OC1CC(C)(C)N(O)C(C)(C)C1 (centres undefined)
inactive: [4] 93 % of control | [5] 86 % of control

COc1ccc2oc3cc(Cl)ccc3c(=O)c2c1
inactive: [7] 118 % of control | [8] 101 % of control | [9] 100 % of control

Cc1noc2c1NC(=O)OC(C)(C)C2
inactive: dose: 12.5 mg/kg/injection, schedule: Q01DX005 (ip), vehicle: Klucel (hydroxypropylcellulose) (HPC) 102 % of control | dose: 25.0 mg/kg/injection, schedule: Q01DX005 (ip), vehicle: Klucel (hydroxypropylcellulose) (HPC) 105 % of control | [4] 100 % of control | [5] 104 % of control | [6] 101 % of control

CN(Cc1ccc([N+](=O)[O-])cc1)C(=O)Nc1ccc(S(=O)(=O)F)cc1
inactive: dose: 60.0 mg/kg/injection, schedule: Q01DX005 (ip), vehicle: Klucel (hydroxypropylcellulose) (HPC) 110 % of control | dose: 120.0 mg/kg/injection, schedule: Q01DX005 (ip), vehicle: Klucel (hydroxypropylcellulose) (HPC) 92 % of control | dose: 240.0 mg/kg/injection, schedule: Q01DX005 (ip), vehicle: Klucel (hydroxypropylcellulose) (HPC) 92 % of control

COC(=O)c1ccc(C(=S)OC)cc1
inactive: dose: 100.0 mg/kg/injection, schedule: Q04DX002 (ip), vehicle: saline with Tween-80 108 % of control | dose: 200.0 mg/kg/injection, schedule: Q04DX002 (ip), vehicle: saline with Tween-80 100 % of control | dose: 400.0 mg/kg/injection, schedule: Q04DX002 (ip), vehicle: saline with Tween-80 101 % of control

CCCCN1CSC(=S)N(Cc2ccccc2)C1
inactive: dose: 50.0 mg/kg/injection, schedule: Q01DX009 (ip), vehicle: other 115 % of control | dose: 100.0 mg/kg/injection, schedule: Q01DX009 (ip), vehicle: other 108 % of control | dose: 200.0 mg/kg/injection, schedule: Q01DX009 (ip), vehicle: other 92 % of control

COc1cc(CC(O)c2cc(OC)c(OC)c(OC)c2)cc(OC)c1OC (centres undefined)
inactive: dose: 31.25 mg/kg/injection, schedule: Q01DX009 (ip), vehicle: saline + Tween-80 + alcohol 102 % of control | dose: 62.5 mg/kg/injection, schedule: Q01DX009 (ip), vehicle: saline + Tween-80 + alcohol 102 % of control | dose: 125.0 mg/kg/injection, schedule: Q01DX009 (ip), vehicle: saline + Tween-80 + alcohol 100 % of control | dose: 250.0 mg/kg/injection, schedule: Q01DX009 (ip), vehicle: saline + Tween-80 + alcohol 91 % of control

COc1cc([C@@H]2c3cc4c(cc3C[C@@H]3COC(=O)[C@H]32)OCO4)cc(OC)c1OC
inactive: [1] 86 % of control | [2] 96 % of control | [3] 106 % of control

Nc1ccc([N+](=O)[O-])c(N)n1
inactive: [10] 100 % of control | [11] 107 % of control | [12] 97 % of control

CCCCCCCCCCC/C=C/[N+](=O)[O-]
inactive: dose: 5.0 mg/kg/injection, schedule: Q01DX005 (ip), vehicle: Klucel (hydroxypropylcellulose) (HPC) 101 % of control | dose: 10.0 mg/kg/injection, schedule: Q01DX005 (ip), vehicle: Klucel (hydroxypropylcellulose) (HPC) 99 % of control | dose: 20.0 mg/kg/injection, schedule: Q01DX005 (ip), vehicle: Klucel (hydroxypropylcellulose) (HPC) 104 % of control | dose: 40.0 mg/kg/injection, schedule: Q01DX005 (ip), vehicle: Klucel (hydroxypropylcellulose) (HPC) 99 % of control

O=C(C(Br)C(Br)c1ccccc1)C(Br)C(Br)c1ccccc1 (centres undefined)
inactive: dose: 100.0 mg/kg/injection, schedule: Q04DX003 (ip), vehicle: saline sonified 104 % of control | dose: 200.0 mg/kg/injection, schedule: Q04DX003 (ip), vehicle: saline sonified 100 % of control | dose: 400.0 mg/kg/injection, schedule: Q04DX003 (ip), vehicle: saline sonified 95 % of control

O=C1ON=C(c2ccccc2)/C1=C\C=C\c1ccccc1
inactive: [7] 95 % of control | [8] 98 % of control | [9] 103 % of control

CCC1CN1P(=O)(OCCC#N)N1CC1CC (centres undefined)
inactive: [13] 100 % of control | [14] 104 % of control | [15] 109 % of control | [10] 104 % of control | [11] 100 % of control | [12] 104 % of control

O=C1OC2(CC1n1cnc3ccccc3c1=O)C(=O)Nc1ccccc12 (centres undefined)
inactive: dose: 8.75 mg/kg/injection, schedule: Q01DX005 (ip), vehicle: Klucel (hydroxypropylcellulose) (HPC) 111 % of control | dose: 17.5 mg/kg/injection, schedule: Q01DX005 (ip), vehicle: Klucel (hydroxypropylcellulose) (HPC) 90 % of control | dose: 35.0 mg/kg/injection, schedule: Q01DX005 (ip), vehicle: Klucel (hydroxypropylcellulose) (HPC) 91 % of control

CCCCCCC(=O)/C=C/c1ccc(OC(=O)c2ccc(Cl)cc2)cc1
inactive: dose: 6.25 mg/kg/injection, schedule: Q01DX009 (ip), vehicle: saline 97 % of control | [13] 94 % of control | [14] 94 % of control | [16] 92 % of control | dose: 200.0 mg/kg/injection, schedule: Q01DX009 (ip), vehicle: saline 92 % of control

O=C(/C=C/c1c(-c2ccccc2)[nH]c2ccccc12)c1ccc([N+](=O)[O-])cc1
inactive: [7] 97 % of control | [8] 90 % of control | [9] 87 % of control

C[O][Sn]([CH3])([CH3])[O][Sn]([CH3])([CH3])[Cl]
inactive: dose: 6.25 mg/kg/injection, schedule: Q04DX003 (ip), vehicle: saline 103 % of control and 106 % of control | dose: 12.5 mg/kg/injection, schedule: Q04DX003 (ip), vehicle: saline 100 % of control and 101 % of control and 96 % of control | dose: 25.0 mg/kg/injection, schedule: Q04DX003 (ip), vehicle: saline 99 % of control and 100 % of control and 109 % of control | dose: 50.0 mg/kg/injection, schedule: Q04DX003 (ip), vehicle: saline 102 % of control and 120 % of control and 97 % of control

O=c1n[n+]([O-])ccn1C1OC(CO)C(O)C1O (centres undefined)
inactive: [15] 119 % of control and 123 % of control | [16] 106 % of control | dose: 450.0 mg/kg/injection, schedule: Q01DX009 (ip), vehicle: saline 96 % of control
active: dose: 300.0 mg/kg/injection, schedule: Q01DX009 (ip), vehicle: saline 169 % of control and 170 % of control

COC(C(=O)C(O)C(C)O)C1CC2C=C3C=C(OC4CC(OC5CC(O)C(OC)C(C)O5)C(OC(C)=O)C(C)O4)C(C)C(=O)C3=C(O)C2=C(O)C1OC1CC(OC2CC(OC3CC(C)(O)C(OC(=O)C(C)C)C(C)O3)C(O)C(C)O2)C(O)C(C)O1 (centres undefined)
active: dose: 1.0 micrograms/kg/injection, schedule: Q01DX010 (ip), vehicle: saline 150 % of control | dose: 4.0 micrograms/kg/injection, schedule: Q01DX010 (ip), vehicle: saline 165 % of control | dose: 8.0 micrograms/kg/injection, schedule: Q01DX010 (ip), vehicle: saline 175 % of control | dose: 16.0 micrograms/kg/injection, schedule: Q01DX010 (ip), vehicle: saline 155 % of control

CCCOc1ccc2c(NCCCCCCNc3c4ccccc4nc4cc(OCCC)ccc34)c3ccccc3nc2c1
inactive: dose: 0.62 mg/kg/injection, schedule: Q## X009 (ip), vehicle: lactic acid 121 % of control | dose: 2.5 mg/kg/injection, schedule: Q## X009 (ip), vehicle: lactic acid 120 % of control | dose: 5.0 mg/kg/injection, schedule: Q## X009 (ip), vehicle: lactic acid 105 % of control
